According to US20240390335A1, “PHARMACEUTICAL COMPOSITION CONTAINING BETA-LACTAM COMPOUND AND USE THEREOF” (priority 2021, published 2024):
Values after ≈ are worked out from the molar mass of the structure shown.

What was measured:
Enterobacter cloacae [1] = assay: MIC assay of individual compounds (microdilution, CLSI/NCCLS); assay type: cell-based; conditions: individual compound
Method: (§1) Mueller-Hinton broth (MH broth) medium, Trypticase Soy Broth (TSB Broth) medium, purchased from BD Difco, Cockeysville, MD, USA; • 96-well plate: Corning Costar, Cambridge, MA, USA; • Test method: the antibacterial activities were tested by the microdilution method according to the CLSI/NCCLS standard.
(§2) (1) Preparation of the test samples: 4 mg of each sample was taken, and was prepared into a test solution at 1,024 μg/mL with MH broth, and the test solution was diluted two-fold in a 96-well plate to prepare solutions of a series of gradient concentrations, the volume in each well being 90 μL.
(§3) (2) Preparation of a bacteria solution: The test strains were amplified by Trypticase Soy Broth (TSB Broth) according to the CLSI/NCCLS standard.
(§4) (3) Addition of the samples: a bacteria solution with a concentration of 6×10^5 cfu/mL was prepared, and 10 μL of the bacteria solution was pipetted into each well of the 96-well plate. Three parallel experiments were set up for each concentration and the results were averaged. To the negative control group, 10 μL of the bacterial solution and 90 μL MH broth were added.
(§5) (4) Incubation: the 96-well plate was placed in a 37° C. constant-temperature incubator for 18 hours, and the growth of the strains was observed. The drug concentration in the well with no microbial growth was recorded as the MIC.

Klebsiella pneumoniae [2] = assay: as above; assay type: cell-based; conditions: individual compound
Method: as §1, §2, §3, §4, §5

Escherichia coli [3] = assay: as above; assay type: cell-based; conditions: individual compound
Method: as §1, §2, §3, §4, §5

Enterobacter cloacae [4] = assay: Combined in vitro use, checkerboard dilution method; assay type: cell-based; conditions: compound of formula (I-1) combined with avibactam; Enterobacter cloacae ATCC 2468
Method: (§6) Mueller-Hinton broth (MH broth) medium, Trypticase Soy Broth (TSB Broth) medium, purchased from BD Difco, Cockeysville, MD, USA; • 96-well plate: Corning Costar, Cambridge, MA, USA; • Test method: the checkerboard dilution method was used for determination.
(§7) (1) Preparation of the test samples: 4 mg of each sample was taken and was prepared into a test solution at 2,048 μg/mL with MH broth, and the test solution was diluted two-fold in a 96-well plate to prepare solutions of a series of gradient concentrations.
as §3
(§8) (3) Addition of the samples: 10 μL of the bacteria solution with a concentration of 6×10^5 CFU/mL was pipetted into each well of the 96-well plate. Each well contained the antibacterial drugs (the compound of formula (I-1) and the compound of formula (I-2)) diluted two-fold with broth and the aforementioned lactamase inhibitor or efflux pump inhibitor. […] The samples were mixed thoroughly. Three parallel experiments were set up for each concentration and the results were averaged. To the negative control group, 10 μL of the bacterial solution and 90 μL MH broth were added.
(§9) (4) Incubation: the 96-well plate was placed in a 37° C. constant-temperature incubator for 18 hours, and the growth of the strains was observed.
(§10) (5) Calculation: The in vitro effect of each drug-inhibitor combination was analyzed by calculating the FICI value: FICI=(MIC of drug A in the combination/MIC of drug A alone)+ (MIC of drug B in the combination/MIC of drug B alone).
(§11) In order to ensure the reliability of the data, three repeated tests were conducted on different dates and the results were averaged.

Klebsiella pneumoniae [5] = assay: as above; assay type: cell-based
Method: as §6, §7, §3, §8, §9, §10, §11

Escherichia coli [6] = assay: as above; assay type: cell-based; conditions: compound of formula (I-1) combined with avibactam
Method: as §6, §7, §3, §8, §9, §10, §11

[7] = system: drug-resistant Enterobacteriaceae; assay: MIC assay of individual compounds, summary over Enterobacteriaceae strains; assay type: cell-based; conditions: against the aforementioned Enterobacteriaceae
Method: as §1, §2, §3, §4, §5

[8] = system: Klebsiella pneumoniae ATCC BAA2146 (NDM-1); conditions: avibactam itself; stated as well known to those skilled in the art; cited from earlier work
[9] = Escherichia coli CCPM(A)-P-071301

SMILES: NC(=O)[C@@H]1CC[C@@H]2CN1C(=O)N2OS(=O)(=O)O [Avibactam, avibactam]
- MIC (Enterobacter cloacae [1]; Enterobacter cloacae ATCC 2468): 32 µg/mL (≈ 121 µM)
- MIC (Enterobacter cloacae [1]; Enterobacter cloacae CCPM(A)-P-111719): 32 µg/mL (≈ 121 µM)
- MIC (Klebsiella pneumoniae [2]; Klebsiella pneumoniae ATCC 2146): 8 µg/mL (≈ 30.2 µM)
- MIC (Klebsiella pneumoniae [2]; Klebsiella pneumoniae ATCC 700603): 16 µg/mL (≈ 60.3 µM)
- MIC (Klebsiella pneumoniae [2]; Klebsiella pneumoniae CCPM(A)-0814R18): 16 µg/mL (≈ 60.3 µM)
- MIC (Klebsiella pneumoniae [2]; Klebsiella pneumoniae CCPM(A)-0814R33): 16 µg/mL (≈ 60.3 µM)
- MIC (Klebsiella pneumoniae [2]; Klebsiella pneumoniae CCPM(A)-0817R61): 32 µg/mL (≈ 121 µM)
- MIC (Klebsiella pneumoniae [2]; Klebsiella pneumoniae CCPM(A)-081301): 32 µg/mL (≈ 121 µM)
- MIC (Klebsiella pneumoniae [2]; Klebsiella pneumoniae CCPM(A)-081705): 16 µg/mL (≈ 60.3 µM)
- MIC (Klebsiella pneumoniae [2]; Klebsiella pneumoniae CCPM(A)-081715): 32 µg/mL (≈ 121 µM)
- MIC (Klebsiella pneumoniae [2]; Klebsiella pneumoniae CCPM(A)-081716): 16 µg/mL (≈ 60.3 µM)
- MIC (Klebsiella pneumoniae [2]; Klebsiella pneumoniae CCPM(A)-081729): 32 µg/mL (≈ 121 µM)
- MIC (Escherichia coli [3]; Escherichia coli ATCC 2469): 16 µg/mL (≈ 60.3 µM)
- MIC (Escherichia coli [3]; [9]): 16 µg/mL (≈ 60.3 µM)
- MIC in combination (Enterobacter cloacae [4]): 4 µg/mL
- MIC in combination (Klebsiella pneumoniae [5]; compound of formula (I-1) combined with avibactam, Klebsiella pneumoniae ATCC 2146): 2 µg/mL
- MIC in combination (Klebsiella pneumoniae [5]; compound of formula (I-1) combined with avibactam, Klebsiella pneumoniae ATCC 700603): 0.5 µg/mL
- MIC in combination (Klebsiella pneumoniae [5]; compound of formula (I-1) combined with avibactam, Klebsiella pneumoniae CCPM(A)-0814R18): 0.5 µg/mL
- MIC in combination (Klebsiella pneumoniae [5]; compound of formula (I-1) combined with avibactam, Klebsiella pneumoniae CCPM(A)-0814R33): 2 µg/mL
- MIC in combination (Klebsiella pneumoniae [5]; compound of formula (I-1) combined with avibactam, Klebsiella pneumoniae CCPM(A)-0817R61): 0.5 µg/mL
- MIC in combination (Klebsiella pneumoniae [5]; compound of formula (I-1) combined with avibactam, Klebsiella pneumoniae CCPM(A)-081705): 8 µg/mL
- MIC in combination (Klebsiella pneumoniae [5]; compound of formula (I-1) combined with avibactam, Klebsiella pneumoniae CCPM(A)-081715): 0.5 µg/mL
- MIC in combination (Klebsiella pneumoniae [5]; compound of formula (I-1) combined with avibactam, Klebsiella pneumoniae CCPM(A)-081716): 8 µg/mL
- MIC in combination (Klebsiella pneumoniae [5]; compound of formula (I-1) combined with avibactam, Klebsiella pneumoniae CCPM(A)-081729): 8 µg/mL
- MIC in combination (Klebsiella pneumoniae [5]; compound of formula (I-2) combined with avibactam, Klebsiella pneumoniae ATCC 2146): 0.5 µg/mL
- MIC in combination (Klebsiella pneumoniae [5]; compound of formula (I-2) combined with avibactam, Klebsiella pneumoniae ATCC 700603): 0.5 µg/mL
- MIC in combination (Klebsiella pneumoniae [5]; compound of formula (I-2) combined with avibactam, Klebsiella pneumoniae CCPM(A)-081715): 4 µg/mL
- MIC in combination (Klebsiella pneumoniae [5]; compound of formula (I-2) combined with avibactam, Klebsiella pneumoniae CCPM(A)-081729): 4 µg/mL
- MIC in combination (Escherichia coli [6]; Escherichia coli ATCC 2469): 1 µg/mL
- MIC in combination (Escherichia coli [6]; [9]): 1 µg/mL
- activity of the inhibitor itself [7]: relatively weak activities
- in vivo antibacterial effect on the test strain [8]: no in vivo antibacterial effect
